US10766865B2, “PKM2 modulators and methods for their use” (TOLERO PHARMACEUTICALS, INC., priority 2012, dated 2020)
Like-named read-outs stand apart in the source and are kept apart here.

Legend:
[1] = target: T1, PKM2 (Homo sapiens, UniProt P14618); assay: Cell-Based Pyruvate Kinase Activity Assay, NCI-H1299; set-up: host or cells: A549 or NCI-H1299 lung cancer cells; settings: NCI-H1299, 30 minutes with compound, n = 4; read-out: Cellular PKM2 activation EC50
Procedure: Cell-Based Pyruvate Kinase Activity Assay
A549 or NCI-H1299 lung cancer cells were plated at 20,000 cells per well (96-well plate) in MEM media plus 10% FBS, with no additional glutamine or pyruvate. Following overnight incubation, cells were washed with PBS followed by 4 hour incubation in MEM media. Compounds were added to the cells in 1% final concentration DMSO. After 30 minutes, cells were lysed, and pyruvate kinase activity in lysates was determined by Pyruvate Kinase Activity Assay (BioVision, Milpitas, Calif.). Maximum velocity values were calculated from the kinetic data, and AC50 values were determined using Prism GraphPad Software (La Jolla, Calif.). Compound washout experiments were as described above, except after a 30 minute incubation with Example 244 (469 nM), the cells were washed with PBS followed by the addition of MEM media for the indicated time period, lysed and pyruvate kinase activity determined. Results are tabulated in Table 3 and presented graphically in FIGS. 6A and 6B.
Target sequence in this assay (P14618 2-531 limits assumed): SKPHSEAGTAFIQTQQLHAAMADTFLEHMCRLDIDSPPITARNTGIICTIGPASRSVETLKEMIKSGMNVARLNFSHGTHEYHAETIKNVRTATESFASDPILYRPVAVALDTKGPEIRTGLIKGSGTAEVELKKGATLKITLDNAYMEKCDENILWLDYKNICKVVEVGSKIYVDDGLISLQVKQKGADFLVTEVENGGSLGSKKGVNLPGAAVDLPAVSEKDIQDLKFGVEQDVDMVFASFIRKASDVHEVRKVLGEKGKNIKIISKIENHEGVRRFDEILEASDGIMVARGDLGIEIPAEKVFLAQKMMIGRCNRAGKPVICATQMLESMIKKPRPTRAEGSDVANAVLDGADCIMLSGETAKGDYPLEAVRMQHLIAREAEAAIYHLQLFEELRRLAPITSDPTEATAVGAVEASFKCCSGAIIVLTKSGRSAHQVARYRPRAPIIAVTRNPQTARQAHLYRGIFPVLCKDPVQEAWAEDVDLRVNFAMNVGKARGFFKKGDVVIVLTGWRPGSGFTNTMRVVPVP

[2] = target: T1, PKM2; assay: PKM2 Biochemical Assay
Target sequence in this assay (P14618 whole entry): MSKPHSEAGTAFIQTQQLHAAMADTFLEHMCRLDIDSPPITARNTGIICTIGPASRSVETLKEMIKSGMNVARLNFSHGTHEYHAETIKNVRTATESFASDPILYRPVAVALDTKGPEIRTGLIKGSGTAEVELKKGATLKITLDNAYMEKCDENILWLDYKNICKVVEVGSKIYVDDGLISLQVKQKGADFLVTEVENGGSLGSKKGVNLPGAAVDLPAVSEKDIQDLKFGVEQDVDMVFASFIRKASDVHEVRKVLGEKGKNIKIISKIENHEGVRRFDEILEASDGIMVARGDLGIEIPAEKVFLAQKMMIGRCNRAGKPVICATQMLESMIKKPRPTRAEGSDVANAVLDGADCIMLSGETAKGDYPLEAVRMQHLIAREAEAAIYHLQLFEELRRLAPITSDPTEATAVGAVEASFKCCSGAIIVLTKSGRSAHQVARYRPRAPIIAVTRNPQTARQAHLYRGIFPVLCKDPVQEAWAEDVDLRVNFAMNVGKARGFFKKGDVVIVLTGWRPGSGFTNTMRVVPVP
Procedure: Full length, human PKM2 enzyme was obtained from Promab (Richmond, Calif.). All reagents, unless otherwise noted, were obtained from Sigma (St. Louis, Mo.).
Compounds were pre-incubated with 2 nM PKM2 in reaction buffer (50 mM Tris-HCl, pH 8.0, 200 mM KCl, 30 mM MgCl2, 2 mM DTT, 5% DMSO) for 30 min at ambient temperature. […] After 30 min, ATP formation was measured by Kinase Glo (Promega, Madison, Wis.), and AC50 values were determined using Prism (GraphPad Software, Inc., La Jolla, Calif.).

EC50 [1]: 220 ± 50 nM | Max. Resp. ([2]; % maximum response in a biochemical assay as compared with Fructose 1,6-bisphosphate): 100% | Emax ([2]; read-out: % FBP (extent of maximal activation, relative to FBP)): 104 ± 11% | AC50 ([2]; read-out: AC50 (concentration of half-maximal PKM2 activation), Table 2, n = 6 to 10): 11 ± 4 nM | AC50 ([2]; read-out: PKM2 AC50, 2 nM PKM2, 75 μM ADP, 15 μM PEP, Kinase Glo): 11 nM | Maximal PKM2 activity ([2]; relative to activity in DMSO controls (normalized to 100%), FIG. 1B): approximately 600%
SMILES: O=C(c1cc(C(F)(F)F)n[nH]1)N(Cc1ccc(O)cc1F)CC1CCC1 [Example 1, N-(cyclobutylmethyl)-N-(2-fluoro-4-hydroxybenzyl)-3-(trifluoromethyl)-1H-pyrazole-5-carboxamide]
